≈ marks a conversion by molar mass, not a printed value. Calls of active or inactive are those of the source. The rule behind the calls is not given here.
What was measured:
Bacillus subtilis [1] = test: Antimicrobial activity against Bacillus subtilis MTCC 13343 assessed as reduction in bacterial growth by serial dilution method; type: functional
Escherichia coli [2] = test: Antimicrobial activity against Escherichia coli ATCC 10799 assessed as reduction in bacterial growth by serial dilution method; type: functional
HepG2 [3] = test: Cytotoxicity against human HepG2 cells assessed as reduction in cell viability up to 100 ug/mL by MTT assay relative to control; type: functional; details: dose <= 100 µg/ml; up to 100 µg/mL
Nakaseomyces glabratus = test: Antimicrobial activity against Candida glabrata MTCC 3019 assessed as reduction in fungal growth by serial dilution method; type: functional
HepG2 [4] = test: Antiangiogenic activity against human HepG2 cells assessed as reduction in area of wound coverage at 12.5 ug/mL incubated for 72 hrs by scratch wound healing assay relative to control; type: functional; parameters: scale not given: the % may be the effect or the level left; details: dose 12.5 µg/ml
Staphylococcus aureus [5] = test: Antimicrobial activity against Staphylococcus aureus ATCC 6538 assessed as reduction in bacterial growth by serial dilution method; type: functional
Candida albicans [6] = test: Antimicrobial activity against Candida albicans ATCC 24433 assessed as reduction in fungal growth by serial dilution method; type: functional
HepG2 [7] = test: Antiangiogenic activity against human HepG2 cells assessed as reduction in area of wound coverage at 12.5 ug/mL incubated for 24 to 72 hrs by scratch wound healing assay; type: functional, cell-based; details: dose 12.5 µg/ml, time 24-72 hrs
HepG2 [8] = test: Cytotoxicity against human HepG2 cells assessed as reduction in cell viability at 25 to 100 ug/mL by MTT assay; type: functional, cell-based; details: dose 25-100 µg/ml
HepG2 [9] = test: Antiangiogenic activity against human HepG2 cells assessed as reduction in area of wound coverage at 6.25 to 12.5 ug/mL by scratch wound healing assay; type: functional, cell-based; details: dose 6.25-12.5 µg/ml, time 24-72 hrs
HepG2 [10] = test: Antiangiogenic activity against human HepG2 cells assessed as reduction in area of wound coverage at 6.25 ug/mL incubated for 24 to 72 hrs by scratch wound healing assay; type: functional, cell-based; details: dose 6.25 µg/ml, time 24-72 hrs
HepG2 [11] = test: Antiangiogenic activity against human HepG2 cells assessed as reduction in area of wound coverage incubated for 24 to 72 hrs by scratch wound healing assay; type: functional, cell-based; details: dose 6.25-12.5 µg/ml, time 24-72 hrs
Pseudomonas aeruginosa [12] = test: Antimicrobial activity against Pseudomonas aeruginosa MTCC 11778 assessed as reduction in bacterial growth by serial dilution method; type: functional
Bacillus subtilis [13] = test: Selectivity ratio of MBC for bactericidal activity against Bacillus subtilis MTCC 13343 to MIC for antimicrobial activity against Bacillus subtilis MTCC 13343; type: functional
Escherichia coli [14] = test: Bactericidal activity against Escherichia coli ATCC 10799 by serial dilution method; type: functional
Staphylococcus aureus [15] = test: Bactericidal activity against Staphylococcus aureus ATCC 6538 by serial dilution method; type: functional
Pseudomonas aeruginosa [16] = test: Bactericidal activity against Pseudomonas aeruginosa MTCC 11778 by serial dilution method; type: functional
Escherichia coli [17] = test: Selectivity ratio of MBC for bactericidal activity against Escherichia coli ATCC 10799 to MIC for antimicrobial activity against Escherichia coli ATCC 10799; type: functional
Bacillus subtilis [18] = test: Bactericidal activity against Bacillus subtilis MTCC 13343 by serial dilution method; type: functional
Candida albicans [19] = test: Fungicidal activity against Candida albicans ATCC 24433 by serial dilution method; type: functional
HepG2 [20] = test: Antiangiogenic activity against human HepG2 cells assessed as reduction in area of wound coverage at 12.5 ug/mL incubated for 48 hrs by scratch wound healing assay; type: functional; details: dose 12.5 µg/ml
HepG2 [21] = test: Cytotoxicity against human HepG2 cells assessed as reduction in cell viability at 100 ug/mL by MTT assay relative to control; type: functional; details: dose 100 µg/ml
HepG2 [22] = test: Antiangiogenic activity against human HepG2 cells assessed as reduction in area of wound coverage at 12.5 ug/mL incubated for 72 hrs by scratch wound healing assay; type: functional; details: dose 12.5 µg/ml
HepG2 [23] = test: Antiangiogenic activity against human HepG2 cells assessed as reduction in area of wound coverage at 12.5 ug/mL incubated for 24 hrs by scratch wound healing assay; type: functional; details: dose 12.5 µg/ml

Row | Structure (SMILES) | MIC (Bacillus subtilis [1]) [mg/L] | MIC (Escherichia coli [2]) [mg/L] | Activity (HepG2 [3]) [%] | MIC (Nakaseomyces glabratus) [mg/L] | Activity (HepG2 [4]) [%] | MIC (Staphylococcus aureus [5]) [mg/L] | MIC (Candida albicans [6]) [mg/L] | Activity (HepG2 [7]) | Activity (HepG2 [8]) | Activity (HepG2 [9]) | Activity (HepG2 [10]) | Activity (HepG2 [11]) | MIC (Pseudomonas aeruginosa [12]) [mg/L] | MBC (Pseudomonas aeruginosa [16]) [mg/L] | MBC (Bacillus subtilis [18]) [mg/L] | other results
1 | O=c1c(C(NCc2cccc(C(F)(F)F)c2)c2ccccc2)csc2ccccc12 (stereo not drawn) | 64 (≈ 150 µM) | 32 (≈ 75.2 µM) | <70 | 64 (≈ 150 µM) | 28.93 | 64 (≈ 150 µM) | 32 (≈ 75.2 µM) | Active | Active | Time-dependent-effect | Active | Dose-dependent-effect | 32 (≈ 75.2 µM) |  |  | 
2 | O=c1c(C(NCc2ccc(OC(F)(F)F)cc2)c2ccccc2)csc2ccccc12 (stereo not drawn) | 16 (≈ 36.2 µM) | 8 (≈ 18.1 µM) | >70 | 16 (≈ 36.2 µM) | 31.19 | 8 (≈ 18.1 µM) | 16 (≈ 36.2 µM) | Active | Active | Time-dependent-effect | Active | Dose-dependent-effect | 16 (≈ 36.2 µM) | 64 (≈ 145 µM) | 64 (≈ 145 µM) | Selectivity ratio (Bacillus subtilis [13]): 16; MBC (Escherichia coli [14]): 32 mg/L (≈ 72.5 µM); MBC (Staphylococcus aureus [15]): 32 mg/L (≈ 72.5 µM); Selectivity ratio (Escherichia coli [17]): 4
3 | CC1(C)S[C@@H]2[C@H](NC(=O)[C@H](N)c3ccccc3)C(=O)N2[C@H]1C(=O)O [AMPICILLIN] | 8 (≈ 22.9 µM) |  |  |  |  | 4 (≈ 11.4 µM) |  |  |  |  |  |  |  |  | 32 (≈ 91.6 µM) | MBC (Staphylococcus aureus [15]): 64 mg/L (≈ 183 µM)
4 | O=C(O)c1cn(C2CC2)c2cc(N3CCNCC3)c(F)cc2c1=O [CIPROFLOXACIN] |  |  |  |  |  |  |  |  |  |  |  |  | 4 (≈ 12.1 µM) | 32 (≈ 96.6 µM) |  | MBC (Escherichia coli [14]): 64 mg/L (≈ 193 µM)
5 | O=c1c(C(NCc2ccc(Cl)cc2)c2ccccc2)csc2ccccc12 (stereo not drawn) | 64 (≈ 163 µM) | 32 (≈ 81.6 µM) | <70 | 32 (≈ 81.6 µM) | 25.83 | 64 (≈ 163 µM) | 32 (≈ 81.6 µM) | Active | Active | Time-dependent-effect | Active | Dose-dependent-effect | 32 (≈ 81.6 µM) |  |  | 
6 | OC(Cn1cncn1)(Cn1cncn1)c1ccc(F)cc1F [FLUCONAZOLE] |  |  |  | 16 (≈ 52.2 µM) |  |  | 8 (≈ 26.1 µM) |  |  |  |  |  |  |  |  | MFC (Candida albicans [19]): 64 mg/L (≈ 209 µM)
7 | O=c1c(C(NCc2ccccc2)c2ccccc2)csc2ccc(Cl)cc12 (stereo not drawn) | 4 (≈ 10.2 µM) | 16 (≈ 40.8 µM) |  | 8 (≈ 20.4 µM) | 18.24 | 16 (≈ 40.8 µM) | 16 (≈ 40.8 µM) |  | Active | Time-dependent-effect | Active | Dose-dependent-effect | 8 (≈ 20.4 µM) | 64 (≈ 163 µM) | 64 (≈ 163 µM) | Selectivity ratio (Bacillus subtilis [13]): 16; Activity (HepG2 [20]): 683000 µm²; Activity (HepG2 [21]): 80%; Activity (HepG2 [22]): 692000 µm²; Activity (HepG2 [23]): 768000 µm²

From ChEMBL document CHEMBL6134805, “Dual-acting β-Aminothiochromones: Design, synthesis, and evaluation as antimicrobial and anti-angiogenic agents” (2025)
